The structures appear in SMILES notation. Structures can show the parent of a compound that is named as a salt. Where two headings read alike, the source gives them in different places.

The subject of series [1] is L1210 leukemia. The following applies: murine models; cited from earlier work.
The nature of series [2]: Triapine pharmacokinetics in plasma and erythrocytes. It is filed as in vivo, human. The following applies: for Tmax: 45 mg/m2, Tmax, Triapine 25 or 45 mg/m2, cycle 1 day 1.
Series [3] deals with Madison 109 (M109) lung tumors. The following applies: twice daily intra-peritoneal for 5-6 days at 8-10 mg/kg/dose; cited from earlier work.
Series [4] in a line: Phase 1 dose escalation: toxicity, DLT and MTD of Triapine with doxorubicin. It is filed as in vivo, human.
Series [5] has as its system A2780 ovarian tumors. The following applies: twice daily intra-peritoneal for 5-6 days at 8-10 mg/kg/dose; cited from earlier work.
For series [6] the following is noted: cited from earlier work.
The conditions of series [7]: cited from earlier work. This is another data set of the same source.
The nature of series [8]: clinical. The following applies: human.
A short description of series [9]: Doxorubicin pharmacokinetics in plasma. The following applies: mean.
Where [10] appears, read: human, erythrocytes, intravenous.
[11] abbreviates: 2 hour IV infusions for 5 days of every 28 day cycle.

On to `NC(=S)NN=Cc1ncccc1N` [Triapine, 3-aminopyridine-2-carboxaldehyde thiosemicarbazone], for which the anti-tumor activity entry in series [1] was “displayed anti-tumor activity”; in series [6] (single 2-hour IV infusion every 4 weeks), “no anti-tumor activity was observed”. In addition, the maximum concentration (Cmax) (as a rule, the highest concentration seen after dosing) in series [2] (erythrocytes, dose adjusted, mean) was 710 ng/mL; in series [2] (setting [10]), 710 ± 180 ng/mL; in series [2] (human, plasma, intravenous), 650 ± 180 ng/mL; in series [2] (plasma, dose adjusted, mean) it was 650 ng/mL. The Cl in series [2] (erythrocytes, mean) is given as 0.34 mL/min/m^2; in [2] (plasma, mean), 0.38 mL/min/m^2. The Vss was 83 L/m^2 in [2] (erythrocytes, mean) and 107 L/m^2 in series [2] (plasma, mean). The AUC(0-inf) (as a rule, total exposure, with the tail of the curve extrapolated) stood at 1450 ng·h/mL in [2] (setting [10]) and 1210 ng·h/mL in series [2] (human, plasma, intravenous). Also, the half-life (as a rule, the time in which the quantity being followed falls by half) in [2] (human, erythrocytes, intravenous, 45 mg/m2) was 4.2 h; in series [2] (human, plasma, iv), 5.3 h. Moreover, the Tmax (as a rule, the time at which the peak concentration occurs) in series [2] (human, erythrocytes, intravenous, erythrocytes, mean) was found to be 0.04 h; in series [2] (human, plasma, intravenous, plasma, mean), 0.22 ± 0.11 h. Besides, the effect on tumors result in [3] and in series [5] was “effective” in each case. Further, the “recommended phase II combination dose” value in series [4] (Triapine 2 hour infusion on days 1-4) stood at 25 mg/m^2. Besides, the “major DLT” value in series [6] (2-hour infusion daily x 5 schedule) is given as “transient neutropenia”. In series [6] (setting [11]), the “patients with grade 2 anemia” value is given as 73%. In [6] (setting [11]), the “patients with grade 3 anemia” value was 22%. The “patients with grade 3 or 4 thrombocytopenia” value in [6] (setting [11]) is 22%. Further, in series [6] (setting [11]), the “patients with grade 4 leucopenia in at least one course” value was 93%. For the same compound, in series [6] (setting [11]), the “single-agent MTD” value is given as 96 mg/m^2. Also, the “toxicities associated with the infusion” value in series [6] (2 hour infusion of ≥ 140 mg/m^2) is “reversible hypotension, hypoxia, dyspnea, cough, and EKG changes including ST-T wave changes and prolongation of the QT interval”. Moreover, the DLTs result in series [6] (single 2-hour IV infusion every 4 weeks, doses up to 105 mg/m^2) is “no DLTs were observed”. Further, the “recommended phase II dose” value in series [6] (single agent, daily for 4 days) is given as 96 mg/m2.

As to `COc1cccc2c1C(=O)c1c(O)c3c(c(O)c1C2=O)C[C@@](O)(C(=O)CO)C[C@@H]3O[C@H]1C[C@H](N)[C@H](O)[C@H](C)O1` [doxorubicin, Doxorubicin hydrochloride], the “recommended phase II combination dose” value in series [4] (doxorubicin IV bolus on day 1 immediately following Triapine) worked out at 60 mg/m^2. Also, the “incidence of CHF” value in series [7] (cumulative dose 450 mg/m^2) is 4%; in series [7] (cumulative dose up to 300 mg/m^2), 1%. Besides, the patients with leucopenia entry in series [7] (doxorubicin 60 mg/m^2 every 21 days) was “approximately 75%”. The same compound gave a half-life in [8] (in vivo, iv) of 10.1 h. The Tmax in [8] (plasma, intravenous) worked out at 0.2 h. In addition, in series [9], the Cl stood at 252 mL/min/m^2. In addition, in series [9], the Vss was determined as 219 L/m^2.
